Source: patent US20250140406A1, “CLASSIFYING TUMORS AND PREDICTING RESPONSIVENESS” (Oncocyte Corporation, priority 2022, published 2025)
Read-outs that look alike come from different tables or passages of the source. Square brackets hold non-standard residues; d marks the D form. Peptide text beside a SMILES is read from it. * marks the point of attachment. dPhe(4-NHCONH2) = NC(=O)Nc1ccc(C[C@@H](N)C(=O)O)cc1; Dihydroorotyl(S) = O=C1C[C@@H](C(=O)*)NC(=O)N1; dPhe(4-Cl) = N[C@H](Cc1ccc(Cl)cc1)C(=O)O; Phe(4-NH2) = Nc1ccc(C[C@H](N)C(=O)O)cc1; d2Nal = N[C@H](Cc1ccc2ccccc2c1)C(=O)O; Lys(iPr) = CC(C)NCCCC[C@H](N)C(=O)O; dCit = NC(=O)NCCC[C@@H](N)C(=O)O; d3Pal = N[C@H](Cc1cccnc1)C(=O)O

What was measured:
[1] = tested on: cancer cell lines, DetermaIO classes; experiment: Association of PRISM compound sensitivity with DetermaIO (DTIO) cell line classes; type: cell-based
[2] = tested on: cancer cell lines classified IM, MSL, M; experiment: PRISM screen compound sensitivity correlated with IM, MSL and M subtype of cell lines (101 gene signature); type: cell-based
[3] = correlation of PRISM compound sensitivity with DTIO, test cell set
[4] = correlation of PRISM compound sensitivity with DTIO, training cell set
[5] = correlation of PRISM compound sensitivity with IM subtype correlation, test cell set (188 cell lines)
[6] = correlation of PRISM compound sensitivity with M subtype correlation, test cell set (188 cell lines)
[7] = correlation of PRISM compound sensitivity with MSL subtype correlation, test cell set (188 cell lines)
[8] = subtype (IM, MSL or M) with which compound sensitivity is negatively correlated, training cell set (371 cell lines), 101 gene signature
[9] = correlation of PRISM compound sensitivity with IM subtype correlation, test cell set
[10] = correlation of PRISM compound sensitivity with M subtype correlation, test cell set
[11] = correlation of PRISM compound sensitivity with MSL subtype correlation, test cell set
[12] = correlation of PRISM compound sensitivity with DTIO (DetermaIO), test cell set (188 cell lines)
[13] = correlation of PRISM compound sensitivity with DTIO (DetermaIO), training cell set (371 cell lines)
[14] = subtype (IM, MSL or M) assigned to the compound by negative correlation of PRISM sensitivity with subtype, training cell set (371 cell lines), 101 gene signature
[15] = subtype (IM, MSL or M) with which PRISM compound sensitivity is negatively correlated, training cell set, 101 gene signature

SMILES | DTIO Corr test [1, 3] | DTIO Corr train [1, 4] | IM Corr test [2, 5] | M Corr test [2, 6] | MSL Corr test [2, 7] | IM Corr test [2, 9] | M Corr test [2, 10] | MSL Corr test [2, 11] | also measured
CCCCC1OC(=O)c2ccccc21 (stereo not shown) [butylphthalide] | −0.1082 | 0.01178 | −0.03693 | −0.03289 | −0.02003 |  |  |  | TNBCType train [2, 8]: MSL
COc1ccc(Nc2nccc(NCCO)n2)cc1 [cardiogenol-c] |  |  | −0.05174 | −0.01984 | −0.00925 |  |  |  | DTIO Corr test ([1]; correlation of PRISM compound sensitivity with DTIO, test cell set (188 cell lines)): −0.07629; DTIO Corr train ([1]; correlation of PRISM compound sensitivity with DTIO, training cell set (371 cell lines)): 0.01043; TNBCType train ([2]; subtype (IM, MSL or M) the PRISM compound sensitivity is associated with, training cell set (371 cell lines), 101 gene signature): MSL
CO/N=C(\C(=O)N[C@@H]1C(=O)N2C(C(=O)OCOC(=O)C(C)(C)C)=C(C)CS[C@H]12)c1csc(N)n1 [cefetamet-pivoxil] | −0.06679 | −0.1217 |  |  |  | −0.01246 | 0.001642 | −0.041 | 
CC(=O)N[C@H](Cc1ccc2ccccc2c1)C(=O)N[C@H](Cc1ccc(Cl)cc1)C(=O)N[C@H](Cc1cccnc1)C(=O)N[C@@H](CO)C(=O)N[C@@H](Cc1ccc(O)cc1)C(=O)N[C@H](CCCNC(N)=O)C(=O)N[C@@H](CC(C)C)C(=O)N[C@@H](CCCNC(=N)N)C(=O)N1CCC[C@H]1C(=O)N[C@H](C)C(N)=O [cetrorelix] (Ac-[d2Nal][dPhe(4-Cl)][d3Pal]SY[dCit]LRP[dA]-NH2) |  |  | −0.1828 | −0.05533 | −0.07051 |  |  |  | DTIO Corr test [1, 12]: −0.1344; DTIO Corr train [1, 13]: 0.03723; TNBCType train [2, 14]: MSL
COc1cc(-c2ccc(N=Nc3ccc4c(S(=O)(=O)[O-])cc(S(=O)(=O)[O-])c(N)c4c3O)c(OC)c2)ccc1N=Nc1ccc2c(S(=O)(=O)[O-])cc(S(=O)(=O)[O-])c(N)c2c1O.[Na+].[Na+].[Na+].[Na+] [chicago-sky-blue-6b] |  |  | −0.1701 | 0.1599 | 0.184 |  |  |  | DTIO Corr test [1, 12]: −0.07521; DTIO Corr train [1, 13]: −0.1611
CCS(=O)(=O)N(C)[C@H]1c2cc(C#N)ccc2OC(C)(C)[C@@H]1O [chromanol-293B-(−)-[3R,4S]] | −0.09957 | −0.08029 |  |  |  | −0.09685 | 0.08774 | 0.1021 | 
Cc1c(Cl)cccc1Nc1ncccc1C(=O)O.NCCCC[C@H](N)C(=O)O [clonixin-lysinate] |  |  |  |  |  |  |  |  | DTIO Corr test [1]: −0.01494; DTIO Corr train [1]: −0.00484; IM Corr test [2]: −0.06378; M Corr test [2]: 0.004709; MSL Corr test [2]: −0.03679; TNBCType train [2]: MSL
CN(CCOP(=O)(O)O)C(=N)N [creatinol-phosphate] | 0.02757 | −0.08518 |  |  |  | −0.00785 | 0.001052 | −0.06276 | 
CN[C@@H](C)[C@H]1[C@H](O)C[C@@]2(C)[C@@H]3CC[C@H]4C(C)(C)[C@@H](NC)CC[C@@]45C[C@@]35CC[C@]12C [cyclovirobuxin-d] | 0.02667 | 0.06721 |  |  |  | 0.03318 | −0.04158 | 0.04619 | 
N#CCNC(=O)c1ccc(-c2ccnc(Nc3ccc(N4CCOCC4)cc3)n2)cc1 [cyt387] |  |  | 0.06763 | −0.1142 | −0.1416 |  |  |  | DTIO Corr test [1, 12]: 0.000569; DTIO Corr train [1, 13]: −0.03421; TNBCType train [2, 14]: MSL
CC(=O)N[C@H](Cc1ccc2ccccc2c1)C(=O)N[C@H](Cc1ccc(Cl)cc1)C(=O)N[C@H](Cc1cccnc1)C(=O)N[C@@H](CO)C(=O)N[C@@H](Cc1ccc(NC(=O)[C@@H]2CC(=O)NC(=O)N2)cc1)C(=O)N[C@H](Cc1ccc(NC(N)=O)cc1)C(=O)N[C@@H](CC(C)C)C(=O)N[C@@H](CCCCNC(C)C)C(=O)N1CCC[C@H]1C(=O)N[C@H](C)C(N)=O [degarelix] (Ac-[d2Nal][dPhe(4-Cl)][d3Pal]S[Phe(4-NH2)](Dihydroorotyl(S))[dPhe(4-NHCONH2)]L[Lys(iPr)]P[dA]-NH2) | −0.01776 | 0.01996 | 0.000275 | −0.03554 | −0.05421 |  |  |  | TNBCType train [2, 8]: MSL
CCN(CC)C(=S)[S-].O.O.O.[Na+] [ditiocarb-sodium-trihydrate] | −0.1096 | −0.01519 |  |  |  | −0.07988 | 0.03103 | −0.01951 | TNBCType train [2, 15]: MSL
C[C@]12N[C@H](Cc3ccccc31)c1ccccc12 [dizocilpine-(−)] | −0.06945 | 0.02729 |  |  |  | −0.0703 | −0.00928 | −0.09183 | TNBCType train [2, 15]: MSL
